The source of these data is patent US20230066011A1, “PYRROLOPYRIMIDINE DERIVATIVE, AND PHARMACEUTICAL COMPOSITION FOR PREVENTING OR TREATING PROTEIN KINASE-RELATED DISEASE COMPRISING SAME AS ACTIVE INGREDIENT” (VORONOI CO., LTD., priority 2019, published 2023).

One may read the GI50 as the concentration giving 50% growth inhibition.

One assay relates to TNF-α. The assay is described as follows: Inhibition of LPS-induced TNF-α secretion of THP-1 monocytes (ELISA). Format: cell-based, human. The note with it: Homo sapiens, THP-1; compound 0.5 μM, LPS 500 ng/mL, 24 hours; read-out: THP-1/TNF-α (% inhib). The essentials:
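THP-1 monocytes grown 16 h at 37 °C, pretreated 1 h with compound at final 0.5 μM, then stimulated with LPS at final 500 ng/mL for 24 h. IL-6 and TNF-α in culture supernatant measured by ELISA (OD 450 nm).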
A general note: An ELISA detects its analyte on a solid surface through an enzyme-linked reagent.

The next assay relates to MDA-MB-468 cell line. The assay can be described thus: Inhibition of proliferation of MDA-MB-468 cancer cells (Cell Titer-Glo). Format: cell-based. The conditions noted are these: Homo sapiens, MDA-MB-468, 72 hours. The essentials: (§1)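 GI50 values derive from Cell Titer-Glo luminescence, measured after a 10-minute room-temperature incubation with the reagent. Before that, cells plated at 2,000 per well in DMEM or RPMI medium were treated for 72 h with compound at 11 final concentrations spanning 10 μM down to 0.000169 μM in threefold steps.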

The target of the next assay is T1, FAK (Homo sapiens, UniProt Q05397).
T1 construct: purchased DiscoverX Corp. (ScanMAX Kinase analysis panel, service)
T1 sequence (Q05397 whole entry): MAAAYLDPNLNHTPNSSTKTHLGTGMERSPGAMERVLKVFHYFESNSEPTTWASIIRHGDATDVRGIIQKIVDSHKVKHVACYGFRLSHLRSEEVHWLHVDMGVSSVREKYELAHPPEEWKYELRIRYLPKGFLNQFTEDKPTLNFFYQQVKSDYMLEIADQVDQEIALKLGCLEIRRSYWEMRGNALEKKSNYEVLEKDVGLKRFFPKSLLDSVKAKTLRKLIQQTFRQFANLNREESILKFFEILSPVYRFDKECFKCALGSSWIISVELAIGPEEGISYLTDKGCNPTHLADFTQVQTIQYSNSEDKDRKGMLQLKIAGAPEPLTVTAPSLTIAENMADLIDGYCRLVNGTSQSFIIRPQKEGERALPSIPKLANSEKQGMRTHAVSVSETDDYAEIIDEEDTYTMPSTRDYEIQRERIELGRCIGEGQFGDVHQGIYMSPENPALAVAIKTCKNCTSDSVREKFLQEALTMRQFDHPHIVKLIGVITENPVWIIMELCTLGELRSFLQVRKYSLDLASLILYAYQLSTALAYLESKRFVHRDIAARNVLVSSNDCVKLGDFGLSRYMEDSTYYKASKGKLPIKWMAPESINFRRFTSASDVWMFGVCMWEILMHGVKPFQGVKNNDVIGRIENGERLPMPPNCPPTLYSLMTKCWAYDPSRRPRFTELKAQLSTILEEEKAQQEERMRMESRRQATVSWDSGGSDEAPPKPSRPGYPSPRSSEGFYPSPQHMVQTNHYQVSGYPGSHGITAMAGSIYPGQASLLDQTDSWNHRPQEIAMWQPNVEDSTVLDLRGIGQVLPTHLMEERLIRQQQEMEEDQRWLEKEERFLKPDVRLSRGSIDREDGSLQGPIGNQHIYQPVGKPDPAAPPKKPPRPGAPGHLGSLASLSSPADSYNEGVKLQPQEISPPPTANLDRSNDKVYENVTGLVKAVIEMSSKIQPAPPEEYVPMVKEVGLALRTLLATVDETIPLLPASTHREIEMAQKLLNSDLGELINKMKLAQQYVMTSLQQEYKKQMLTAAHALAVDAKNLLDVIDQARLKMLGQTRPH
The assay is described as follows: ScanMAX Kinase analysis panel, FAK. Format: binding. The conditions noted are these: 1 μM in DMSO; <35% considered inhibitory; read-out: percent control (% control), FAK. How it is done:
Specifically, the enzyme (kinase) selectivity of Example compounds 238, 361, 411, 157, 161, 228, and 158 selected from the Example compounds of the present invention was determined by commissioning DiscoverX Corp., and an experiment was performed using a ScanMAX™ Kinase analysis panel. In this case, a concentration of the drug with which the enzymes were treated was 1 μM in DMSO, and the percent control (% control) was defined in the same manner as in the following Expression 1.
(Example Compound−Positive Control)/(Negative Control−Positive Control)×100 [Expression 1]
wherein the positive control represents a compound having a percent control of 0%, and the negative control represents DMSO having a percent control of 100%. For the enzyme selectivity of the present invention, it was considered that the compound has an inhibitory activity on each of the enzymes when the percent control for the corresponding enzyme was <35% (i. e., less than 35%).

Another assay has as its system MDA-MB-231 cell line. The assay is described as follows: Inhibition of proliferation of MDA-MB-231 cancer cells (Cell Titer-Glo). Format: cell-based. The note with it: Homo sapiens, 72 hours. The essentials: as §1
A general note: In ATP-based viability assays light output follows the ATP content of the culture.

`CCNc1nc(Nc2ccc(C(=O)N3CCN(C4COC4)CC3)c3c2OCCO3)nc2[nH]cc(C(F)(F)F)c12` [Example 400, (8-((4-(ethylamino)-5-(trifluoromethyl)-7H-pyrrolo[2,3-d]pyrimidin-2-yl)amino)-2,3-dihydrobenzo[b] [1,4]dioxin-5-yl) (4-(oxetan-3-yl)piperazin-1-yl)methanone]: the inhibition at 0.5 µM with TNF-α was 1%. For the same molecule, the GI50 in the assay on MDA-MB-468 cell line fell in the range of 301 to 1000 nM.
The like results for `COCCNc1nc(Nc2ccc(C(=O)N3CCC(N4CCOCC4)CC3)c3c2OCC3)nc2[nH]cc(C(F)(F)F)c12` [Example 443, (7-((4-((2-methoxyethyl)amino)-5-(trifluoromethyl)-7H-pyrrolo[2,3-d]pyrimidin-2-yl)amino)-2,3-dihydrobenzo-furan-4-yl)(4-morpho-linopiperidin-1-yl)methanone] were, in that order, 10.8% and 301 to 1000 nM.
On the same counts, the results for `CNc1nc(Nc2ccc(C(=O)N3CCN(C4COC4)CC3)c3c2OCCO3)nc2[nH]cc(C(F)(F)F)c12` [Example 397, (8-((4-(methylamino)-5-(trifluoromethyl)-7H-pyrrolo[2,3-d]pyrimidin-2-yl)amino)-2,3-dihydrobenzo[b] [1,4]dioxin-5-yl) (4-(oxetan-3-yl)piperazin-1-yl)methanone] are 5.6% and 301 to 1000 nM.
`O=C(c1ccc(Nc2nc(C3CC3)c3c(C(F)(F)F)c[nH]c3n2)c2c1OCCO2)N1CCC(N2CCOCC2)CC1` [Example 228, (8-((4-cyclopropyl-5-(trifluoromethyl)-7H-pyrrolo[2,3-d]pyrimidin-2-yl)amino)-2,3-dihydrobenzo[b][1,4]dioxin-5-yl)(4-morpholinopiperidin-1-yl)methanone]: the remaining binding at 1 µM at FAK is 24%. Besides, the GI50 with MDA-MB-468 cell line lay in the range of 301 to 1000 nM.
For the molecule `COCCNc1nc(Nc2ccc(P3(=O)CCN(C4CCOCC4)CC3)cc2OC)nc2[nH]cc(C(F)(F)F)c12` [Example 444, 4-(3-methoxy-4-((4-((2-methoxyethyl)amino)-5-(trifluoromethyl)-7H-pyrrolo[2,3-d]pyrimidin-2-yl)amino)phenyl)-1-(tetrahydro-2H-pyran-4-yl)-1,4-azaphosphinane 4-oxide], the inhibition at 0.5 µM in the assay on TNF-α amounted to 14.4%. Besides, the GI50 in the assay with MDA-MB-468 cell line lay within 301 to 1000 nM.
For the molecule `COCCNc1nc(Nc2ccc(C(=O)N3CCC(N4CCOCC4)CC3)c3c2OCC3)nc2[nH]cc(C#N)c12` [Example 359, 4-((2-methoxy-ethyl)ami-no)-2-((4-(4-morpholino-piperidine-1-carbonyl)-2,3-dihydro-benzofuran-7-yl)amino)-7H-pyrrolo[2,3-d]pyrimidine-5-carbonitrile], the inhibition at 0.5 µM in the assay with TNF-α came to 33.2%. In addition, the GI50 in the assay on MDA-MB-468 cell line and in the assay on MDA-MB-231 cell line was 301 to 1000 nM each time.
On to `C=CCNc1nc(Nc2ccc(S(=O)(=O)N3CCC(N4CCOCC4)CC3)cc2OC)nc2[nH]cc(C#N)c12` [Example 361, 4-(allylamino)-2-((2-methoxy-4-((4-morpholino-piperidin-1-yl)sulfonyl)phenyl)amino)-7H-pyrrolo[2,3-d]pyrimidine-5-carbonitrile], for which, at FAK, the remaining binding at 1 µM was 0.75%. Moreover, the inhibition at 0.5 µM in the assay on TNF-α amounted to 9.3%. In the assay with MDA-MB-468 cell line, the GI50 is less than 50 nM.
For the molecule `O=C(c1ccc(Nc2nc(NC3CCCC3)c3c(C(F)(F)F)c[nH]c3n2)c2c1OCCO2)N1CCN(C2COC2)CC1` [Example 414, (8-((4-(cyclopentyl-amino)-5-(trifluoromethyl)-7H-pyrrolo[2,3-d]pyrimidin-2-yl)amino)-2,3-dihydrobenzo[b] [1,4]dioxin-5-yl) (4-(oxetan-3-yl)piperazin-1-yl)methanone], in the assay with TNF-α, the inhibition at 0.5 µM amounted to 40.3%. Moreover, the concentration for 50% growth inhibition (GI50) in the assay on MDA-MB-468 cell line and with MDA-MB-231 cell line was 101 to 300 nM in each case.
Regarding `CNc1nc(Nc2ccc(P3(=O)CCN(C4CC4)CC3)cc2OC)nc2[nH]cc(C(F)(F)F)c12` [Example 411, 1-cyclopropyl-4-(3-methoxy-4-((4-(methylamino)-5-(trifluoromethyl)-7H-pyrrolo[2,3-d]pyrimidin-2-yl)amino)phenyl)-1,4-azaphosphinane-4-oxide], at FAK, the remaining binding at 1 µM turned out to be 10%.
For `CCNc1nc(Nc2ccc(C(=O)N3CCC(N4C[C@@H]5C[C@H]4CO5)CC3)c3c2OCC3)nc2[nH]cc(C(F)(F)F)c12` [Example 468], the inhibition at 0.5 µM in the assay on TNF-α is 16.5%. In the assay on MDA-MB-468 cell line, this molecule displayed a GI50 of 301 to 1000 nM.
For the molecule `COCCNc1nc(Nc2ccc(C(=O)N3CCN(C4COC4)CC3)c3c2OCCO3)nc2[nH]cc(C(F)(F)F)c12` [Example 403, (8-((4-((2-methoxyethyl)-amino)-5-(trifluoromethyl)-7H-pyrrolo[2,3-d]pyrimidin-2-yl)amino)-2,3-dihydrobenzo[b] [1,4]dioxin-5-yl) (4-(oxetan-3-yl)piperazin-1-yl)methanone], the inhibition at 0.5 µM in the assay with TNF-α was 40.4%. In the assay with MDA-MB-468 cell line, this molecule registered a GI50 of 301 to 1000 nM.
As for `CCCNc1nc(Nc2ccc(S(=O)(=O)N3CCC(N4CCOCC4)CC3)cc2OC)nc2[nH]cc(C(F)(F)F)c12` [Example 161, N^2-(2-methoxy-4-((4-morpholinopiperidin-1-yl)sulfonyl)phenyl)-N^4-propyl-5-(trifluoromethyl)-7H-pyrrolo[2,3-d]pyrimidine-2,4-diamine], the remaining binding at 1 µM on FAK is 2.3%. For the same molecule, the GI50 in the assay with MDA-MB-231 cell line fell in the range of 301 to 1000 nM.
Turning to `CCNc1nc(Nc2ccc(S(=O)(=O)N3CCC(N4CCOCC4)CC3)cc2OC)nc2[nH]cc(C(F)(F)F)c12` [Example 158, N^4-ethyl-N^2-(2-methoxy-4-((4-morpholinopiperidin-1-yl)sulfonyl)phenyl)-5-(trifluoromethyl)-7H-pyrrolo[2,3-d]pyrimidine-2,4-diamine 2,2,2-trifluoroacetate], the remaining binding at 1 µM at FAK is 1.1%. Moreover, the GI50 in the assay on MDA-MB-231 cell line was in the range of 101 to 300 nM.
For `CCNc1nc(Nc2ccc(S(=O)(=O)N3CCC(N4CCOCC4)CC3)c3c2OCCO3)nc2[nH]cc(C(F)(F)F)c12` [Example 430, N^4-ethyl-N^2-(8-((4-morpholino-piperidin-1-yl)sulfonyl)-2,3-dihydro-benzo[b][1,4]dioxin-5-yl)-5-(trifluoromethyl)-7H-pyrrolo[2,3-d]pyrimidine-2,4-diamine], the inhibition at 0.5 µM in the assay on TNF-α was 4.5%. Moreover, the GI50 in the assay with MDA-MB-468 cell line and in the assay with MDA-MB-231 cell line was 301 to 1000 nM each time.
In the case of `O=C(c1ccc(Nc2nc(NC3CCC3)c3c(C(F)(F)F)c[nH]c3n2)c2c1OCCO2)N1CCN(C2COC2)CC1` [Example 407, (8-((4-(cyclo-butylamino)-5-(trifluoromethyl)-7H-pyrrolo[2,3-d]pyrimidin-2-yl)amino)-2,3-dihydrobenzo[b] [1,4]dioxin-5-yl) (4-(oxetan-3-yl)piperazin-1-yl)methanone], in the assay with TNF-α, the inhibition at 0.5 µM amounted to 5.3%. In the assay on MDA-MB-468 cell line, this molecule gave a GI50 of 301 to 1000 nM.
As to `CNc1nc(Nc2ccc(S(=O)(=O)N3CCC(N4CCOCC4)CC3)cc2OC)nc2[nH]cc(C(F)(F)F)c12` [Example 157, N^2-(2-methoxy-4-((4-morpholinopiperidin-1-yl)sulfonyl)phenyl)-N^4-methyl-5-(trifluoromethyl)-7H-pyrrolo[2,3-d]pyrimidine-2,4-diamine 2,2,2-trifluoroacetate], the remaining binding at 1 µM on FAK was 0.85%. Also, in the assay on TNF-α, the inhibition at 0.5 µM was determined as 6.7%. In addition, the GI50 with MDA-MB-231 cell line was 301 to 1000 nM.
In the case of `COc1cc(S(=O)(=O)N2CCC(N3C[C@H]4C[C@@H]3CO4)CC2)ccc1Nc1nc(C2CC2)c2c(C(F)(F)F)c[nH]c2n1` [Example 473, N-(4-((4-((1R,4R)-2-oxa-5-azabicyclo[2.2.1]heptan-5-yl)piperidin-1-yl)sulfonyl)-2-methoxyphenyl)-4-cyclopropyl-5-(trifluoromethyl)-7H-pyrrolo[2,3-d]pyrimidin-2-amine], in the assay on TNF-α, the inhibition at 0.5 µM came to 11.3%. Moreover, the GI50 was in the range of 301 to 1000 nM in the assay on MDA-MB-468 cell line and 101 to 300 nM in the assay with MDA-MB-231 cell line.
On the same counts, the results for `CNc1nc(Nc2ccc(S(=O)(=O)N3CCC(N4CCOCC4)CC3)c3c2OCCO3)nc2[nH]cc(C(F)(F)F)c12` [Example 219, N^4-methyl-N^2-(8-((4-morpholinopiperidin-1-yl)sulfonyl)-2,3-dihydrobenzo[b][1,4]dioxin-5-yl)-5-(trifluoromethyl)-7H-pyrrolo[2,3-d]pyrimidine-2,4-diamine] are 6.6%, 301 to 1000 nM and 301 to 1000 nM.
With `CNc1nc(Nc2ccc(C(=O)N3CCC(N4CCOCC4)CC3)c3c2OCCO3)nc2[nH]cc(C(F)(F)F)c12` [Example 238, (8-((4-(methylamino)-5-(trifluoromethyl)-7H-pyrrolo[2,3-d]pyrimidin-2-yl)amino)-2,3-dihydrobenzo[b][1,4]dioxin-5-yl)(4-morpholinopiperidin-1-yl)methanone], the remaining binding at 1 µM at FAK is 7.8%.
